PMC12799524, “Putative new biomarkers for renal transporter-mediated drug-drug interactions: Characterization as substrates of organic cation transporter 2, multidrug and toxin extrusion protein 1, and other important drug transporters” (Drug Metabolism and Disposition, 2025)
Like-named read-outs stand apart in the source and are kept apart here. Marks after values point to notes of the source that are not given here.

How the values were obtained:
[1] = design: method as in PMID 39148267; conditions: humans, cited from earlier work; for In Vivo Change of Renal Excretion, Cimetidine: median log2-fold change after treatment with cimetidine; for In Vivo Change of Renal Excretion, Probenecid: median log2-fold change after treatment with probenecid; for In Vivo Change of Renal Excretion, Rifampin: median log2-fold change after treatment with rifampin; for In Vivo Change of Renal Excretion, Verapamil: median log2-fold change after treatment with verapamil
[2] = target: T1, MATE1 (Homo sapiens, UniProt Q96FL8); assay: Uptake assay in HEK-MATE1 vs HEK-VC cells (pH 8.0); conditions: for Uptake in HEK-MATE1 cells compared to HEK-VC cells (in words) / Effect of cimetidine on uptake in HEK-MATE1 cells: 10 and 100 μM substrate; for Uptake in HEK-MATE1 cells compared to HEK-VC cells (in words): pH 8.0; for In Vitro MATE1 (substrate class): summary of in vitro uptake/transport results; for Uptake in HEK-MATE1 cells compared to HEK-VC cells: 10 μM substrate; for Effect of cimetidine on uptake in HEK-MATE1 cells: cimetidine 50 μM
T1 sequence (Q96FL8 1-570): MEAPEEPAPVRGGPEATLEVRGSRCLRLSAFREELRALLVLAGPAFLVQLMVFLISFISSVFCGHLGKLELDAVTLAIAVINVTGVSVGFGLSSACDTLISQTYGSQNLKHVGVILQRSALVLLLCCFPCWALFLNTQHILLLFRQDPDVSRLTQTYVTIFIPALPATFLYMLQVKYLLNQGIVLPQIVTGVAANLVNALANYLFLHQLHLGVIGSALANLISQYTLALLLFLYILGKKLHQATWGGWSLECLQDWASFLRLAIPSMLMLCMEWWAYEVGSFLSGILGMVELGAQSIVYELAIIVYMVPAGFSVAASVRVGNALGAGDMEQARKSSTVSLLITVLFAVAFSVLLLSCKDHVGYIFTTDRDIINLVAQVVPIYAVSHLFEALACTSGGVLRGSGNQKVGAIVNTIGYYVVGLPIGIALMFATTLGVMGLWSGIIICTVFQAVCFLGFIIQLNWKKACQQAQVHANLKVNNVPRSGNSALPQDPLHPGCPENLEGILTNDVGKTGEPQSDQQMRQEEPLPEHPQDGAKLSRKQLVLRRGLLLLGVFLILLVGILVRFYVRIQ
Protocol: (§1) Transport experiments were performed 48 hours after seeding.
The intracellular background of all 5 compounds in HEK cells at the beginning of the uptake experiments was investigated 48 hours after seeding without incubation with transport buffer (ie, 0 minutes). […] Then, cells were lysed with ice-cold 80% MeOH containing the aforementioned recovery standards. In addition, the impact of a 5-minute incubation period with transport buffer without added substance was investigated.

[3] = target: T2, human OAT1 (Homo sapiens, UniProt Q4U2R8); assay: Uptake assay in HEK-OAT1 vs HEK-VC cells; format: in vitro ADME
T2 construct: expressed in transfected cells; host or cells: HEK293 (HEK-OAT1), plasmid pOAT1.31 in pcDNA3.1/Hy(-)
T2 sequence (Q4U2R8 1-563): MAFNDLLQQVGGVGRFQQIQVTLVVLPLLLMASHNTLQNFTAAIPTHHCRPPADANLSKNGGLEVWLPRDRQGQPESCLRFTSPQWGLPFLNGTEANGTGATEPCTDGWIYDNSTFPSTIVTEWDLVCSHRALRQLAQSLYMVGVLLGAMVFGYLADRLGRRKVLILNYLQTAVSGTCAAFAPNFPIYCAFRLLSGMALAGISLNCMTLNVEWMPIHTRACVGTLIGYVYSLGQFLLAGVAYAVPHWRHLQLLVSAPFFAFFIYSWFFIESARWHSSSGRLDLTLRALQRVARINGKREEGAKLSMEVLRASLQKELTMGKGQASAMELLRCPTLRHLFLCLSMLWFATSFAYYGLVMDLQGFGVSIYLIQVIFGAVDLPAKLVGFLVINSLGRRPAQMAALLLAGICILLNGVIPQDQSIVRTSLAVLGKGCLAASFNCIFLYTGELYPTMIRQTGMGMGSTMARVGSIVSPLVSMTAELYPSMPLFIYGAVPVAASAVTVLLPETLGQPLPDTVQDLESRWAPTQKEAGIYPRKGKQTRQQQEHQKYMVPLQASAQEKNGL
Protocol: as §1

[4] = target: T3, human OATP1B1 (Homo sapiens, UniProt Q9Y6L6); assay: Uptake assay in HEK-OATP1B1 vs HEK-VC cells; format: in vitro ADME
T3 construct: expressed in transfected cells; host or cells: HEK293 (HEK-OATP1B1)
T3 sequence (Q9Y6L6 1-691): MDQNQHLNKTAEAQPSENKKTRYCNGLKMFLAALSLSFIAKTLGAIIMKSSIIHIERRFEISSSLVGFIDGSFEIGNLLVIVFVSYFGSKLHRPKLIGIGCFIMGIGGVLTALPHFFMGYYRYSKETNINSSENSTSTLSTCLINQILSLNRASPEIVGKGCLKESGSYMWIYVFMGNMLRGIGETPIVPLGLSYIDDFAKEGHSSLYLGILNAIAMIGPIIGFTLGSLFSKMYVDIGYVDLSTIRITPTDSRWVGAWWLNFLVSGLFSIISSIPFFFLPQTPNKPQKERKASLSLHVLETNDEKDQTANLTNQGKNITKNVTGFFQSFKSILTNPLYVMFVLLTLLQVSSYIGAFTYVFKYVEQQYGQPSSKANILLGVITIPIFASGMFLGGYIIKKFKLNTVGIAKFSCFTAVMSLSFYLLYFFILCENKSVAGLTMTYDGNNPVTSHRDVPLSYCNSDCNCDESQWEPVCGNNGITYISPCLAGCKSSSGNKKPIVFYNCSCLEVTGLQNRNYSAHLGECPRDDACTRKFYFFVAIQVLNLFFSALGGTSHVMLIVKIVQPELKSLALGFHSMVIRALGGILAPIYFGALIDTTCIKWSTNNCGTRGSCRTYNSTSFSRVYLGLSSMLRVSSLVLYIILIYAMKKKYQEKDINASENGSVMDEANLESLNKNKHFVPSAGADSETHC
Protocol: as §1

[5] = cited from earlier work
[6] = listed as 5-amino valeric acid betaine
[7] = 5 minutes, pH 8.0, HEK-VC set to 100%

| Uptake in HEK-MATE1 cells compared to HEK-VC cells (in words) ([2]; 5 minutes) | In Vitro MATE1 (substrate class) [2] | In Vitro OAT1 (substrate class) [3] | Uptake in HEK-MATE1 cells compared to HEK-VC cells [2, 7] [%] | Effect of cimetidine on uptake in HEK-MATE1 cells ([2]; 5 minutes) | SMILES | In Vivo Change of Renal Excretion, Cimetidine [1] | In Vivo Change of Renal Excretion, Probenecid [1] | In Vivo Change of Renal Excretion, Rifampin [1] | In Vivo Change of Renal Excretion, Verapamil [1] | In Vitro OATP1B1 (substrate class) [4] | further results |
| --- | --- | --- | --- | --- | --- | --- | --- | --- | --- | --- | --- |
| significantly lower | + | - |  |  | C[N+](C)(C)CCCCC(=O)[O-] [5-Amino valeric acid betaine, 5-amino valeric acid betaine] | –4.28 ^c log2-fold change | –0.56 ^c log2-fold change | –0.21 log2-fold change | –1.00 log2-fold change | 0 (significant uptake in HEK cells, but less than 300% of respective control cells or significant reduction of transcellular transport in Caco-2 cells, but reduction not below 50% of respective control without valspodar) | Renal elimination, change after cimetidine ([1]; cimetidine): –3.62 log2-fold change; In Vivo Change of Renal Excretion, Cimetidine [1, 6]: –4.28 log2-fold change; In Vivo Change of Renal Excretion, Probenecid [1, 6]: –1.00 log2-fold change; Intracellular background in HEK-MATE1 cells compared to HEK-VC cells ([2]; 0 minutes and 5 minutes without added substance): lower |
| significantly higher | ++ | - | 545 | significantly reduced | NCCc1ccc(O)cc1 [Tyramine, tyramine] | –3.00 ^c log2-fold change | –0.82 log2-fold change | –0.11 log2-fold change | –0.22 log2-fold change | 0 (significant uptake in HEK cells, but less than 300% of respective control cells or significant reduction of transcellular transport in Caco-2 cells, but reduction not below 50% of respective control without valspodar) | Renal clearance ([5]; healthy volunteers, after oral administration of 400 mg tyramine): 260 mL/min |
| significantly higher | ++ | - | 2469 | significantly reduced | NCCc1c[nH]c2ccc(O)cc12 [Serotonin, serotonin] | –2.89 ^c log2-fold change | 0.06 log2-fold change | –0.06 log2-fold change | 0.00 log2-fold change | - | Plasma concentrations, effect of cimetidine ([1]; cimetidine): did not sensitively change; Urine to plasma ratio, change by cimetidine ([1]; cimetidine): –1.94 log2-fold change; In Vivo Change of Renal Excretion, Cimetidine ([1]; listed as serotonin): –2.89 log2-fold change; Uptake ratio in HEK-MATE1 cells compared to HEK-VC cells ([2]; 100 μM substrate, 5 minutes, pH 8.0, HEK-VC set to 100%): 1461%; Urinary excretion ([5]; healthy subjects): 0.21 ± 0.08 nmol/mL/mg creatinine |

| SMILES | Uptake in HEK-MATE1 cells compared to HEK-VC cells (in words) ([2]; 5 minutes) | In Vitro MATE1 (substrate class) [2] | In Vitro OAT1 (substrate class) [3] | Uptake in HEK-MATE1 cells compared to HEK-VC cells [2, 7] [%] | Effect of cimetidine on uptake in HEK-MATE1 cells ([2]; 5 minutes) | In Vivo Change of Renal Excretion, Cimetidine [1] | In Vivo Change of Renal Excretion, Probenecid [1] | In Vivo Change of Renal Excretion, Rifampin [1] | In Vivo Change of Renal Excretion, Verapamil [1] | In Vitro OATP1B1 (substrate class) [4] | further results |
| --- | --- | --- | --- | --- | --- | --- | --- | --- | --- | --- | --- |
| Cn1cnc(CCN)c1 [1-Methylhistamine, 1-methylhistamine] | significantly higher | ++ | - | 778 | significantly reduced | –2.01 ^c log2-fold change | –0.25 log2-fold change | –0.07 log2-fold change | 0.03 log2-fold change | - | Mean urinary excretion ([5]; healthy individuals): around 120 μg/g creatinine |
